For data set [1], the system named is Aβ plaques in TgCRND8 mice brains. Briefly: Immunofluorescent-histological staining of Aβ plaques (6E10). It counts as in vivo, mouse. Particulars: Tg AC253 vs Tg CSF. As to the method:
A microcannula was stereotaxically inserted into the right cerebral ventricle (0.12 right lateral and 0.06 posterior to bregma, 3 mm deep) of isofluorane-anesthetized mice, and connected to an osmotic pump (Alzet; model 2004) implanted subcutaneously on the back of the mouse. The pump infused a solution of either aCSF or AC253 in aCSF into the ventricle at a rate of […] to yield an estimated concentration of 1 μM AC253 in the mouse CSF at equilibrium based upon the known CSF dynamics in the mouse brain (Di Pardo et al., 2012). The pump reservoir was replaced every 28 days for a total of 5-6 months. Animals were monitored on a daily basis for signs of treatment-related toxicity, such as poor grooming, lethargy, loss of bodyweight, and abnormal behavior. […]
For immunostaining, […] thick brain sections were cut using a Cryostat (Leica CM1850), fixed with 4% paraformaldehyde in PBS, permeabilized using 0.3% Triton X-100 and stained with Aβ (6E10), Iba1, and CTR antibody, followed by fluorescent secondary antibody (goat anti mouse Alexa Fluor-546 and donkey anti rabbit Alexa Fluor-488) and mounted in DAPI mounting media. Fluorescent microscopy images were acquired with an Axioplan-2 fluorescence microscope with AxioVision software (Carl Zeiss Ltd., Toronto, ON, Canada). Amyloid plaque size and area were analyzed with Image J.

For another data set, the target named is T1, AMY3 receptor (Homo sapiens, UniProt O60896+P30988).
T1 construct: expressed in transfected cells; AMY3-293 / AMY3-HEK)
T1 sequence (P30988 25-474): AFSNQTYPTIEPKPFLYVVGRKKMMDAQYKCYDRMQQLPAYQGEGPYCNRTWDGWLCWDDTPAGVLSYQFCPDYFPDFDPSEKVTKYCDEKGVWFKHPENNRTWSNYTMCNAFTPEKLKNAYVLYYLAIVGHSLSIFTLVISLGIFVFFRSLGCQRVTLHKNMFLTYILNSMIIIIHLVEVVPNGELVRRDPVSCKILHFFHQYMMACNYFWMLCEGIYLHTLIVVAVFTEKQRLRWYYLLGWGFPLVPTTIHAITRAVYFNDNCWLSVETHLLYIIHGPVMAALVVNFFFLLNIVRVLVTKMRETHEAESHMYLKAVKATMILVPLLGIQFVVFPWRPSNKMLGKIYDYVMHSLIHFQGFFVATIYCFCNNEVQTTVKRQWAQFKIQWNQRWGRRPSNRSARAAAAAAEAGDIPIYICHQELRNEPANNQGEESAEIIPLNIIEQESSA
T1 sequence (O60896 24-148 partner): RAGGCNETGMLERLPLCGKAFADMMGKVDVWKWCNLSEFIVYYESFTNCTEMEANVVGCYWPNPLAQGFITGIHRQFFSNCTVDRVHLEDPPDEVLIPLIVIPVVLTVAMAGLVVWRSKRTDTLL
In words: Inhibition of hAmylin-evoked cAMP in AMY3-expressing HEK293 cells. It counts as cell-based. Particulars: AMY3-HEK cells. As to the method:
a) To investigate peptides amylin receptor affinity, GFP-positive HEK293 cells that stably expressed AMY3 receptor (AMY3-293) as previously reported (Fu et al., 2012) were used. For control, GFP-positive HEK293 wild type cells were used. HEK293 cells were cultured in DMEM (Invitrogen) with 10% FBS (Invitrogen) and grown at 37° C., 5% C02. For cAMP measurements, AMY3-293 cells were plated on 24-well plates overnight. Cells were stimulated for 30 minutes with hAmylin over a concentration range (1 pM-10 μM). Cellular cAMP levels were measured using a parameter cyclic AMP assay kit (R&D Systems) according to the manufacturer's instructions. For in-cell Western blot cAMP quantification, mouse monoclonal anti-cAMP (R&D Systems) was used as a primary antibody, and IRDye 800 goat anti mouse antibody (LI-COR) was used as a secondary antibody. Plates were imaged using an Odyssey Infrared Imaging System (LI-COR), and the integrated intensity was normalized to the total cell number on the same well. Data was plotted, and non-linear regression was fitted with four parameters using Prism software (GraphPad Software, La Jolla, Calif.).
e) For cAMP measurements, AMY3-293 cells were plated on 24-well plates overnight. […] Cellular cAMP levels were measured using a parameter cyclic AMP assay kit (R&D Systems) according to the manufacturer's instructions. […]

A short description of data set [2]: Ex vivo brain imaging of peptide fragments after ip injection, wild-type mice. In kind it is in vivo, mouse. The method, then: For ex vivo imaging experiments and peptide brain uptake, age matched 6-month-old wild-type littermate (C57BL/6 background) mice were used. […] After 2 hours the mice were then sacrificed to collect their brains, and imaged using the Kodak imager as described above, but with an exposure time of 3 min per image for NIRF image.
For ex vivo histological studies, brains were excised, embedded in OCT, then sliced into 20-μm slices, co-stained with DAPI in mounting medium.
Mice were injected with a single dose and then sacrificed, and the brains were extracted after 2 hours from injection. Fluorescence in brains was quantified as previously described.

Each structure is given as a SMILES string. Residues, ends and D or L forms follow the SMILES beside them.

On to `CC(C)C[C@H](NC(=O)[C@H](CCCNC(=N)N)NC(=O)CNC(=O)[C@@H](N)CC(C)C)C(=O)N[C@@H](CO)C(=O)N[C@@H](CCC(N)=O)C(=O)N[C@@H](CCC(=O)O)C(=O)N[C@@H](CC(C)C)C(=O)N[C@@H](Cc1c[nH]cn1)C(=O)N[C@@H](CCCNC(=N)N)C(=O)N[C@@H](CC(C)C)C(=O)N[C@@H](CCC(N)=O)C(=O)N[C@H](C(=O)N[C@@H](Cc1ccc(O)cc1)C(=O)N1CCC[C@H]1C(=O)N[C@@H](CCCNC(=N)N)C(=O)N[C@H](C(=O)N[C@@H](CC(N)=O)C(=O)N[C@H](C(=O)NCC(=O)N[C@@H](CO)C(=O)N[C@@H](CC(N)=O)C(=O)N[C@H](C(=O)N[C@@H](Cc1ccc(O)cc1)C(N)=O)[C@@H](C)O)[C@@H](C)O)[C@@H](C)O)[C@@H](C)O` [AC253], for which the “number of Aβ plaques, total area of Aβ-positive profiles” value in data set [1] was “did not reveal significant difference”. The “block of hAmylin evoked cAMP increase” value on AMY3 receptor is listed as “blocked the hAmylin evoked cAMP increase in a dose-dependent manner”.
On to `CC(C)C[C@H](NC(=O)[C@H](CCC(=O)O)NC(=O)[C@H](CCC(N)=O)NC(=O)[C@@H](N)CO)C(=O)N[C@@H](Cc1c[nH]cn1)C(=O)N[C@@H](CCCNC(=N)N)C(=O)N[C@@H](CC(C)C)C(=O)N[C@@H](CCC(N)=O)C(=O)N[C@H](C(=O)N[C@@H](Cc1ccc(O)cc1)C(=O)N1CCC[C@H]1C(=O)N[C@@H](CCCNC(=N)N)C(N)=O)[C@@H](C)O` [R5] (H-SQELHRLQTYPR-NH2; N-terminus assumed), for which, in data set [2] (0.1 mmol ip, 2 hr post-injection, tested alongside Davlintide), the “brain permeability, imaging of the intact brain” value is given as “marked brain permeability”. Also, the “brain permeability compared to AC253” value in data set [2] (2 hr post-ip injection, wild-type mice) is listed as “marked increase in brain permeability”.

The values above are taken from patent US10766940B2, “Brain penetrant amylin receptor based peptides for Alzheimer's disease” (The Governors of the University of Alberta, priority 2016, dated 2020).
